Measurements published in paper PMC12377313, “New 1E,1′E-hydrazine-bis(phenoxy-1,2,3-triazol-acetamide) derivatives as potent inhibitors against acetylcholinesterase, butyrylcholinesterase, and α-glucosidase” (RSC Advances, 2025).
Like-named read-outs stand apart in the source and are kept apart here.

Experiments:
α-glucosidase [1] = target: T1, α-glucosidase (Saccharomyces cerevisiae, UniProt P53341); assay: α-Glucosidase inhibition assay (p-NPG substrate); assay type: biochemical, yeast
Description: For this assay, the yeast form of α-glucosidase was used and p-nitrophenyl-α-D-glycopyranoside (p-NPG) was used as the substrate. The required solutions of these materials were prepared in a phosphate buffer solution (pH of 7.4 and a concentration of 5 mM). […] Subsequently, a mixture containing 200 μL of phosphate solution, 50 μL of the substrate, and 5–200 μL of the sample solution was pre-incubated at 35 °C for 3 min for α-glucosidase.

α-glucosidase [2] = target: T1, α-glucosidase; assay: Kinetic study (Lineweaver–Burk plots), α-glucosidase; assay type: biochemical
Description: In this regard, compound 10k for AChE and BChE and compound 10h for α-glucosidase were selected. The type of inhibition of these compounds was determined by Lineweaver–Burk plots. […] These indicated a competitive type of inhibition for compound 10k.

[3] = system: HEK293 embryonic kidney cells; assay: MTT cell viability assay, HEK293; assay type: cell-based; details: Homo sapiens, read-out: IC50 (μM) HEK-293
Description: The human neuroblastoma cell line SH-SY5Y (ATCC® CRL-2266™) and HEK293 (ATCC® CRL-1573™) human embryonic kidney cells were grown in Dulbecco's Modified Eagle Medium/Nutrient Mixture F-12 (DMEM/F-12) culture containing 10% heat-inactivated fetal bovine serum (FBS) and 1% antibiotics. The cells were incubated at 37 °C in a humidified atmosphere of 5% CO2. Both cell lines were provided by the American Type Culture Collection (ATCC).[30,31]
SH-SY5Y (ATCC® CRL-2266™) and HEK293 (ATCC® CRL-1573™) cells were seeded into 96-well plates at a density of 5 × 10^3 cells per well, and allowed to adhere overnight in a humidified incubator at 37 °C with 5% CO2. After attachment, the cells were treated with eight different concentrations of the target compounds (200, 100, 50, 25, 12.5, 6.25, 3.125, and 1.5625 μM), prepared via serial 1 : 2 dilutions, for 24 hours. Each concentration was tested in triplicate.
(§1) Following treatment, 10 μL of MTT solution (5 mg mL^−1 in PBS) was added to each well and incubated for an additional 4 hours under the same conditions. At the end of the incubation period, the medium containing MTT was carefully removed, and the formazan crystals formed by viable cells were solubilized in 100 μL of DMSO per well. The absorbance was measured at 570 nm using a microplate reader. The net absorbance (after blank subtraction) was used to calculate the percentage cell viability relative to the untreated control cells, which was set at 100%. All results were expressed as mean ± standard deviation (SD) of three independent experiments.[32,33]

[4] = system: SH-SY5Y neuroblastoma cells; assay: MTT cell viability assay, SH-SY5Y; assay type: cell-based, human; details: for Selectivity (selectivity index): HEK293 versus SH-SY5Y; for IC50: read-out: IC50 (μM) SH-SY5Y
Description: The cells were incubated at 37 °C in a humidified atmosphere of 5% CO2. Both cell lines were provided by the American Type Culture Collection (ATCC).[30,31]
Each concentration was tested in triplicate.
as §1

AChE [5] = target: T2, AChE (Homo sapiens, UniProt P22303); assay: biochemical; assay type: biochemical
T2 sequence (P22303 32-614): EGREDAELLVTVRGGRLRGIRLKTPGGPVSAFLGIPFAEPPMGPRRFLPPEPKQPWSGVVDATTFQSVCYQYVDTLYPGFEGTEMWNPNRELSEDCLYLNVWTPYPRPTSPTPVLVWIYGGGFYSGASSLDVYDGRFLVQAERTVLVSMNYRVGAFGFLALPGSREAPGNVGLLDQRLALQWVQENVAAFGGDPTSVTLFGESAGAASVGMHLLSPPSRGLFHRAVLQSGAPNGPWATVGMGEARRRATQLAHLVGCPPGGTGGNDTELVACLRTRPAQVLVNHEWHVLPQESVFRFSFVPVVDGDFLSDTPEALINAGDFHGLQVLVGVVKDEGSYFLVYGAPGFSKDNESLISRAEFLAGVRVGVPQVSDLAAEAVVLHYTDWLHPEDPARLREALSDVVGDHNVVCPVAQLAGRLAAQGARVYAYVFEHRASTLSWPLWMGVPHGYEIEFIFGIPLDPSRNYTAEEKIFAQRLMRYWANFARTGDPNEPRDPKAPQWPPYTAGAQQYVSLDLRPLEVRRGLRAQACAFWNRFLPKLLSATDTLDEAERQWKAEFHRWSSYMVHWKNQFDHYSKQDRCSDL

BChE [6] = target: T3, BChE (Homo sapiens, UniProt P06276); assay: biochemical
T3 sequence (P06276 29-602): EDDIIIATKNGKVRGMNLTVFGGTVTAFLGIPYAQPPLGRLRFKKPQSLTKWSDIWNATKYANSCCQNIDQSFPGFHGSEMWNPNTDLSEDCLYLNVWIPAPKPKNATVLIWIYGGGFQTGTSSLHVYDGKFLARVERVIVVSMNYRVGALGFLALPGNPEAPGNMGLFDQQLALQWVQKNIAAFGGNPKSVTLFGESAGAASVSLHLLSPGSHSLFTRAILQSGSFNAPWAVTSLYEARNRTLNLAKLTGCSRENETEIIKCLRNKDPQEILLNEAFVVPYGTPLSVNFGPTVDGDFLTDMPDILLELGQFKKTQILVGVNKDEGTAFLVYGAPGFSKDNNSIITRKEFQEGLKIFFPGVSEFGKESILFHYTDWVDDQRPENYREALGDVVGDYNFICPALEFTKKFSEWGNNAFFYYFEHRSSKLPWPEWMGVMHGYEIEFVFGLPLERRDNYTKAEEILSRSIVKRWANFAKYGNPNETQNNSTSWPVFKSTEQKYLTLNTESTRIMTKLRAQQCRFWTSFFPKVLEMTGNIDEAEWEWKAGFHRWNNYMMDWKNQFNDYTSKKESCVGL

BChE [7] = target: T3, BChE; assay: Kinetic study (Lineweaver–Burk plots), BChE; assay type: biochemical
Description: (§2) […]. In this regard, compound 10k for AChE and BChE and compound 10h for α-glucosidase were selected. The type of inhibition of these compounds was determined by Lineweaver–Burk plots. […] These indicated a competitive type of inhibition for compound 10k.

AChE [8] = target: T2, AChE; assay: Kinetic study (Lineweaver–Burk plots), AChE; assay type: biochemical
Description: as §2

[9] = HEK293, 24 h treatment, MTT, mean ± SD (n = 3)
[10] = Homo sapiens, SH-SY5Y, 24 h, 24 h treatment, MTT, mean ± SD (n = 3)
[11] = 24 h treatment, MTT, mean ± SD (n = 3)

T1 sequence (P53341 whole entry): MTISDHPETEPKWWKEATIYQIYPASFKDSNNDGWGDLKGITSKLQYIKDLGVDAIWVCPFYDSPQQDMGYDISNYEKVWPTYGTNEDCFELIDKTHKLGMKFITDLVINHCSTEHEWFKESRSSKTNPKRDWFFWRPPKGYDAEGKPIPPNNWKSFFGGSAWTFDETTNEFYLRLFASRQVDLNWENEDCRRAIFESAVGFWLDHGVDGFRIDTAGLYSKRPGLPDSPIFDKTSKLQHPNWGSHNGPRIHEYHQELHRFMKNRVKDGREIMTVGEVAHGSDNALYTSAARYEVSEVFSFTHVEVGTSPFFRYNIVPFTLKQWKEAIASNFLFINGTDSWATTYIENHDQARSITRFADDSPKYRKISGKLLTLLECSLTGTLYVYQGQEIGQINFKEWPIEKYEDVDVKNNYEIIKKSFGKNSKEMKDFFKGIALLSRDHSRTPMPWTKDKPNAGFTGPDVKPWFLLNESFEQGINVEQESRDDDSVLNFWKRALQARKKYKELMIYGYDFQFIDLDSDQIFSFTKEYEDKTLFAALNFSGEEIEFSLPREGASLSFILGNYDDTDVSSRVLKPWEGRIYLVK

Row | SMILES | IC50 (α-glucosidase [1]) [nM] | type of inhibition against α-glucosidase (α-glucosidase [2]) | IC50 [3, 9] [µM] | Selectivity (selectivity index) [4] | IC50 [4, 10] [µM] | IC50 (AChE [5]; read-out: IC50 (nM) AChE) [nM] | IC50 (BChE [6]) [nM] | type of inhibition against BChE (BChE [7]) | type of inhibition against AChE (AChE [8]) | IC50 (α-glucosidase [1]; read-out: IC50 (nM) α-Glucosidase) [nM] | IC50 ([3]; HEK293, 24 h) [µM] | IC50 ([4]; Homo sapiens, SH-SY5Y, 24 h) [µM] | IC50 (AChE [5]) [nM] | IC50 [4, 11] [µM]
1 | O=C(Cn1cc(COc2ccc(/C=N/N=C/c3ccc(OCc4cn(CC(=O)Nc5ccccc5Cl)nn4)cc3)cc2)nn1)Nc1ccccc1Cl [Compound 10h, 2,2′-((((((1E,1′E)-Hydrazine-1,2-diylidenebis(methaneylylidene))bis(4,1-phenylene))bis(oxy))bis(methylene))bis(1H-1,2,3-triazole-4,1-diyl))bis(N-(2-chlorophenyl)acetamide)] | 23.9 ± 3.42 | non-competitive | 78.38 ± 0.57 | 10.6 | 7.42 ± 0.07 | 118 ± 9.17 | 19.4 ± 0.65 | – | – | – | – | – | – | –
2 | O=C(Cn1cc(COc2ccc(/C=N/N=C/c3ccc(OCc4cn(CC(=O)Nc5ccc(Cl)cc5Cl)nn4)cc3)cc2)nn1)Nc1ccc(Cl)cc1Cl [Compound 10k, 2,2′-((((((1E,1′E)-Hydrazine-1,2-diylidenebis(methaneylylidene))bis(4,1-phenylene))bis(oxy))bis(methylene))bis(1H-1,2,3-triazole-4,1-diyl))bis(N-(2,4-dichlorophenyl)acetamide)] | 46.1 ± 3.26 | – | 81.71 ± 0.56 | 10.1 | 8.11 ± 0.07 | 105 ± 7.32 | 10.1 ± 1.08 | competitive | competitive | – | – | – | – | –
3 | O=C(Cn1cc(COc2ccc(/C=N/N=C/c3ccc(OCc4cn(CC(=O)Nc5ccc([N+](=O)[O-])cc5)nn4)cc3)cc2)nn1)Nc1ccc([N+](=O)[O-])cc1 [Compound 10n, 2,2′-((((((1E,1′E)-Hydrazine-1,2-diylidenebis(methaneylylidene))bis(4,1-phenylene))bis(oxy))bis(methylene))bis(1H-1,2,3-triazole-4,1-diyl))bis(N-(4-nitrophenyl)acetamide)] | – | – | – | 7.4 | – | – | 13.9 ± 4.3 | – | – | 65.1 ± 6.01 | 38.42 ± 0.19 | 5.22 ± 0.12 | 173 ± 9.71 | –
4 | O=C(Cn1cc(COc2ccc(/C=N/N=C/c3ccc(OCc4cn(CC(=O)Nc5ccc(Br)cc5)nn4)cc3)cc2)nn1)Nc1ccc(Br)cc1 [Compound 10l, 2,2′-((((((1E,1′E)-Hydrazine-1,2-diylidenebis(methaneylylidene))bis(4,1-phenylene))bis(oxy))bis(methylene))bis(1H-1,2,3-triazole-4,1-diyl))bis(N-(4-bromophenyl)acetamide)] | 39.1 ± 5.1 | – | 92.86 ± 0.71 | 2.2 | > 30 | 148 ± 8.23 | 16.4 ± 4.74 | – | – | – | – | – | – | 42.15 ± 0.37
5 | COc1ccc(NC(=O)Cn2cc(COc3ccc(/C=N/N=C/c4ccc(OCc5cn(CC(=O)Nc6ccc(OC)cc6OC)nn5)cc4)cc3)nn2)c(OC)c1 [Compound 10e, 2,2′-((((((1E,1′E)-Hydrazine-1,2-diylidenebis(methaneylylidene))bis(4,1-phenylene))bis(oxy))bis(methylene))bis(1H-1,2,3-triazole-4,1-diyl))bis(N-(2,4-dimethoxyphenyl)acetamide)] | 58.5 ± 4.27 | – | 68.95 ± 0.41 | 2.1 | > 30 | 140 ± 9.43 | 16.3 ± 2.09 | – | – | – | – | – | – | 33.19 ± 0.25
6 | O=C(Cn1cc(COc2ccc(/C=N/N=C/c3ccc(OCc4cn(CC(=O)Nc5cccc(Cl)c5)nn4)cc3)cc2)nn1)Nc1cccc(Cl)c1 [Compound 10i, 2,2′-((((((1E,1′E)-Hydrazine-1,2-diylidenebis(methaneylylidene))bis(4,1-phenylene))bis(oxy))bis(methylene))bis(1H-1,2,3-triazole-4,1-diyl))bis(N-(3-chlorophenyl)acetamide)] | 45.8 ± 4.71 | – | 37.4 ± 0.55 | 8.8 | 4.26 ± 0.08 | 164 ± 9.54 | 15.3 ± 3.16 | – | – | – | – | – | – | –
7 | Cc1ccc(NC(=O)Cn2cc(COc3ccc(/C=N/N=C/c4ccc(OCc5cn(CC(=O)Nc6ccc(C)cc6)nn5)cc4)cc3)nn2)cc1 [Compound 10c, 2,2′-((((((1E,1′E)-Hydrazine-1,2-diylidenebis(methaneylylidene))bis(4,1-phenylene))bis(oxy))bis(methylene))bis(1H-1,2,3-triazole-4,1-diyl))bis(N-(p-tolyl)acetamide)] | 67 ± 7.88 | – | 46.91 ± 0.32 | 3.9 | 12 to 16 | 164 ± 9.7 | 17.1 ± 3.21 | – | – | – | – | – | – | 11.9 ± 0.2
8 | O=C(Cn1cc(COc2ccc(/C=N/N=C/c3ccc(OCc4cn(CC(=O)Nc5ccccc5F)nn4)cc3)cc2)nn1)Nc1ccccc1F [Compound 10g, 2,2′-((((((1E,1′E)-Hydrazine-1,2-diylidenebis(methaneylylidene))bis(4,1-phenylene))bis(oxy))bis(methylene))bis(1H-1,2,3-triazole-4,1-diyl))bis(N-(2-fluorophenyl)acetamide)] | 56.7 ± 6.34 | – | 86.45 ± 0.52 | 6.7 | 12.9 ± 0.13 | 112 ± 9.6 | 12.4 ± 3.21 | – | – | – | – | – | – | –
